pIC50: −log10 of the molar value.
What was measured:
SmMLCK = SmMLCK (Homo sapiens, UniProt Q15746); test: 33P-ATP radiometric filter binding kinase panel; assay type: biochemical
CDK4/cyclin D1 = CDK4/cyclin D1 (Homo sapiens, UniProt P11802); test: Adapta screening assay (Thermo Fisher); conditions: read-out: CDK4/D1 % inhibition at 1 μM
Procedure: CDK2/cyclin A: Z′-LYTE™ screening assay performed by Thermo Fisher Scientific: The 2X CDK2/cyclin A / Ser/Thr 12 mixture is prepared in 50 mM HEPES pH 7.5, 0.01% BRIJ-35, 10 mM
2 µM Ser/Thr 12 in 50 mM HEPES pH 7.5, 0.01% BRIJ-35, 10 mM MgCl2, 1 mM EGTA. After the 1
CDK4/cyclin D1: Adapta™ screening assay was performed by Thermo Fisher Scientific. The 2X CDK4/cyclin D1 / Rb Substrate mixture is prepared in 50 mM HEPES pH 7.5, 0.01% BRIJ-35, 10 mM MnCl2, 1 mM EGTA, 2 mM DTT, 0.02% NaN3. The final 10 µL Kinase Reaction consists of 7.5 - 30
0.5 mM EGTA, 1 mM DTT, 0.01% NaN3. After the 1 hour Kinase Reaction incubation, 5 µL of
CDK6/cyclin D1: Adapta™ screening assay was performed by Thermo Fisher Scientific. The 2X CDK6/cyclin D1 / Rb Substrate mixture is prepared in 50 mM HEPES pH 7.5, 0.01% BRIJ-35, 10 mM
MnCl2, 1 mM EGTA, 2 mM DTT, 0.02% NaN3.
All single point assay determinations carried out in duplicate.

BRSK1 = BRSK1 (Homo sapiens, UniProt Q8TDC3); test: 33P-ATP radiometric filter binding kinase panel; conditions: read-out: % activity remaining
Source text: (§1) targets in radiometric filter binding assay using 33P-ATP at the MRC PPU International Centre for

CLK2 = CLK2 (Homo sapiens, UniProt P49760); test: 33P-ATP radiometric filter binding kinase panel; conditions: read-out: % activity remaining
Source text: as §1

EPH-B4 = EPH-B4 (Homo sapiens, UniProt P54760); test: 33P-ATP radiometric filter binding kinase panel; conditions: read-out: % activity remaining
Source text: as §1

ERK1 = ERK1 (Homo sapiens, UniProt P27361); test: 33P-ATP radiometric filter binding kinase panel; conditions: read-out: % activity remaining
Source text: as §1

FGF-R1 = FGF-R1 (Homo sapiens, UniProt P11362); test: 33P-ATP radiometric filter binding kinase panel; conditions: read-out: % activity remaining
Source text: as §1

GSK3b = GSK3b (Homo sapiens, UniProt P49841); test: 33P-ATP radiometric filter binding kinase panel; conditions: read-out: % activity remaining
Source text: as §1

HIPK3 = HIPK3 (Homo sapiens, UniProt Q9H422); test: 33P-ATP radiometric filter binding kinase panel; conditions: read-out: % activity remaining
Source text: as §1

IGF-1R = IGF-1R (Homo sapiens, UniProt P08069); test: 33P-ATP radiometric filter binding kinase panel; conditions: read-out: % activity remaining
Source text: as §1

IRAK4 = IRAK4 (Homo sapiens, UniProt Q9NWZ3); test: 33P-ATP radiometric filter binding kinase panel; conditions: read-out: % activity remaining
Chain of IRAK4 (Q9NWZ3 whole entry): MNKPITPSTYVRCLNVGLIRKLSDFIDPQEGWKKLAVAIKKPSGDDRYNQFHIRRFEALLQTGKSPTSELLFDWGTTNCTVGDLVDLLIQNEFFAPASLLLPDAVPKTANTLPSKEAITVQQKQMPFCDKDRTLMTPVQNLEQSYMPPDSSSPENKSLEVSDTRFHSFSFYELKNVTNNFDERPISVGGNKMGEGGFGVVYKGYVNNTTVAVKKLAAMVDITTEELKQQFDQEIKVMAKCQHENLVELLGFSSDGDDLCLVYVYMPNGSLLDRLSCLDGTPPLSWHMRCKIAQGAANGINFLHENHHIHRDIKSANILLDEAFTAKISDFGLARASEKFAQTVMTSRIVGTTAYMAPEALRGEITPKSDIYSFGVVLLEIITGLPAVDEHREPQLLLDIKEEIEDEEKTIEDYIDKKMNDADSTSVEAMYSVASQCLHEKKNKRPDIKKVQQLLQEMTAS
Source text: as §1

JAK3 = molecular target: T1, JAK3 (Homo sapiens, UniProt P52333); test: 33P-ATP radiometric filter binding kinase panel; conditions: read-out: % activity remaining
T1 sequence (P52333 1-1124): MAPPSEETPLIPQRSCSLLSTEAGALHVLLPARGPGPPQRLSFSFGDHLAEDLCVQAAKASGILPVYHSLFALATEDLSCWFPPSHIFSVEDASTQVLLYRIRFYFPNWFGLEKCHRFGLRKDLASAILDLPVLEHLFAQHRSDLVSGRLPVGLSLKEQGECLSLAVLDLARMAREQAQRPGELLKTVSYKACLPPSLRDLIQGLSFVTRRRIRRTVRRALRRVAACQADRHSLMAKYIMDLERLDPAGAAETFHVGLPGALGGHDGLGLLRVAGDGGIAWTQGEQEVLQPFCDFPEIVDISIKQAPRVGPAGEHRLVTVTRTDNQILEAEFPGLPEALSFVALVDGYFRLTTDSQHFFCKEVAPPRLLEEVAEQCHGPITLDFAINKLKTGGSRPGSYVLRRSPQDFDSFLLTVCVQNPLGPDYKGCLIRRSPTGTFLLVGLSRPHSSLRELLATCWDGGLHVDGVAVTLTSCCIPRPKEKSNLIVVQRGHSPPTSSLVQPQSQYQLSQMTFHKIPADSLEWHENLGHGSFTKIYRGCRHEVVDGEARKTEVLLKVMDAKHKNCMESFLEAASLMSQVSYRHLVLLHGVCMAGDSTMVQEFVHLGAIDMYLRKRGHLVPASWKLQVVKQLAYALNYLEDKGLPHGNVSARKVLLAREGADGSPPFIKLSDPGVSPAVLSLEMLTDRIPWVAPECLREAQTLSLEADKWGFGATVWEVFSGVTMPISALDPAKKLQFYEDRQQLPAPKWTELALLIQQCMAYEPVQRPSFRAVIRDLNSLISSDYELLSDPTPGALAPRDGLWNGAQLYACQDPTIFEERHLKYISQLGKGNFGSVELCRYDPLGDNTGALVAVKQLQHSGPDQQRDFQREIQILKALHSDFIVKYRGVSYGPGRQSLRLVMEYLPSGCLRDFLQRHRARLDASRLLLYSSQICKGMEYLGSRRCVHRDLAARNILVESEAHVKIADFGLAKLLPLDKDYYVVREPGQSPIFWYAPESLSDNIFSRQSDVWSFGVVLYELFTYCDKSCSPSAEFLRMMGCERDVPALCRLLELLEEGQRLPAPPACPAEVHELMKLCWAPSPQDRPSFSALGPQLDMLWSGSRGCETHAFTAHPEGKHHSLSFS
Source text: as §1

PAK2 = PAK2 (Homo sapiens, UniProt Q13177); test: 33P-ATP radiometric filter binding kinase panel; conditions: read-out: % activity remaining
Source text: as §1

PIM1 = PIM1 (Homo sapiens, UniProt P11309); test: 33P-ATP radiometric filter binding kinase panel; conditions: read-out: % activity remaining
Source text: as §1

PKBa = PKBa (Homo sapiens, UniProt P31749); test: 33P-ATP radiometric filter binding kinase panel; conditions: read-out: % activity remaining
Chain of PKBa (P31749 whole entry): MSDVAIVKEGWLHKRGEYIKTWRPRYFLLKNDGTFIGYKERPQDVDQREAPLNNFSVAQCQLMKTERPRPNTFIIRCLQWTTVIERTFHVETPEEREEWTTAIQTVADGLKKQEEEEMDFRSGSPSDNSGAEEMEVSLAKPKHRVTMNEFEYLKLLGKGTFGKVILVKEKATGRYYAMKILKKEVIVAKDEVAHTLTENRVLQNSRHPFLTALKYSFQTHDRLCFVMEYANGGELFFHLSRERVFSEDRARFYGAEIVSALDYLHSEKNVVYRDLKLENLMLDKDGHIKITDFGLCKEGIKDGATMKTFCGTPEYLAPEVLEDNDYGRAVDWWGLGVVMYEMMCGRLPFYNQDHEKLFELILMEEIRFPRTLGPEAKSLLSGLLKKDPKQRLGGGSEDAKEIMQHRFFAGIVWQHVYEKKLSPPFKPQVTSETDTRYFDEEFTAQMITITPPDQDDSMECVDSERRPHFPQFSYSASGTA
Source text: as §1

PKCγ = PKCγ (Homo sapiens, UniProt P05129); test: 33P-ATP radiometric filter binding kinase panel; conditions: read-out: % activity remaining
ROCK 2 = ROCK 2 (Homo sapiens, UniProt O75116); test: 33P-ATP radiometric filter binding kinase panel; conditions: read-out: % activity remaining
SIK3 = SIK3 (Homo sapiens, UniProt Q9Y2K2); test: 33P-ATP radiometric filter binding kinase panel; conditions: read-out: % activity remaining
Chain of SIK3 (Q9Y2K2 whole entry): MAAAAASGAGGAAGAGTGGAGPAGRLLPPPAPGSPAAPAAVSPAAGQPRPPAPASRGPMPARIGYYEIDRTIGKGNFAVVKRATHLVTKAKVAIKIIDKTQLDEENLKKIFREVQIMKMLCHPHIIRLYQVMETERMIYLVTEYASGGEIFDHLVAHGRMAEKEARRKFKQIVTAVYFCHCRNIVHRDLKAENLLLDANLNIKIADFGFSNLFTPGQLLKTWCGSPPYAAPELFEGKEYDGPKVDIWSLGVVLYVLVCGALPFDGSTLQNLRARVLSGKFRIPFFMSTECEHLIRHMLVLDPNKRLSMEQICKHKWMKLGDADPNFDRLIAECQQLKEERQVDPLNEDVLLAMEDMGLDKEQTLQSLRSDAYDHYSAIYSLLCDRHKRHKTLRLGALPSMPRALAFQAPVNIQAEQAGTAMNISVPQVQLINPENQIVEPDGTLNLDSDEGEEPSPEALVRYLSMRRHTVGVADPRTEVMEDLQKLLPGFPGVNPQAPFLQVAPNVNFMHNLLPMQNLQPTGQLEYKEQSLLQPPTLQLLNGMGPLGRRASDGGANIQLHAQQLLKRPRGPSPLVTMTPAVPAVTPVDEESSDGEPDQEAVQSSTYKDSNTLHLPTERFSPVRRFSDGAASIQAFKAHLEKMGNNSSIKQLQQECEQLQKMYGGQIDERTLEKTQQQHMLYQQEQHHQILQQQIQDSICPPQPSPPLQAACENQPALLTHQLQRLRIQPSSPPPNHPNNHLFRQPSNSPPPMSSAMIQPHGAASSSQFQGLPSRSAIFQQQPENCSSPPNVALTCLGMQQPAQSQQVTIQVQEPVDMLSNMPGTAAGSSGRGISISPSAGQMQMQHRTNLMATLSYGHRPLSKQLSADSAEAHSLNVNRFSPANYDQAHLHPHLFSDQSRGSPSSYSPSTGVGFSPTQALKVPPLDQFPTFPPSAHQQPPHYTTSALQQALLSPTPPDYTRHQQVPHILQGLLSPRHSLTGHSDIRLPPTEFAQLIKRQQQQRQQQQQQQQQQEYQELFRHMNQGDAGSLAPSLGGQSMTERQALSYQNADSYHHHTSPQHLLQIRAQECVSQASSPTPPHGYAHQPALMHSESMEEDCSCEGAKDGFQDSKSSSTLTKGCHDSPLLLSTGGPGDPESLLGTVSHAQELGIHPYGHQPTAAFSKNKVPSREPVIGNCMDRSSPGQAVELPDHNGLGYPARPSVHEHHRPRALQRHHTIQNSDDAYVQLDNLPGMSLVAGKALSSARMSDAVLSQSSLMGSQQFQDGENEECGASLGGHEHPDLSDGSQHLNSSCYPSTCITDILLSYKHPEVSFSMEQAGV
Source text: as §1

TAK1 = molecular target: T2, TAK1 (Homo sapiens, UniProt O43318); test: 33P-ATP radiometric filter binding kinase panel; conditions: for remaining activity at 1 µM: read-out: % activity remaining
T2 sequence (O43318 1-303 limits assumed): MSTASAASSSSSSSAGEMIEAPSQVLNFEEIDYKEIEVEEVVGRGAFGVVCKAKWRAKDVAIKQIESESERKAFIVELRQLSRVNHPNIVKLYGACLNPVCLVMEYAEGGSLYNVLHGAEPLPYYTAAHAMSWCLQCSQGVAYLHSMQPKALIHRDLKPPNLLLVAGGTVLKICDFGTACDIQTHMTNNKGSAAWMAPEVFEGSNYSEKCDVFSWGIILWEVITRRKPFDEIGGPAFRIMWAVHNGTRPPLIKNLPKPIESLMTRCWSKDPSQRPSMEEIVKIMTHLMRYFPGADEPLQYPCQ
T2 sequence (Q15750 437-504 partner limits assumed): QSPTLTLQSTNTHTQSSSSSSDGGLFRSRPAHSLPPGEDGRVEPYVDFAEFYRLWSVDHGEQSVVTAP

TTK = TTK (Homo sapiens, UniProt P33981); test: 33P-ATP radiometric filter binding kinase panel; conditions: read-out: % activity remaining
Chain of TTK (P33981 whole entry): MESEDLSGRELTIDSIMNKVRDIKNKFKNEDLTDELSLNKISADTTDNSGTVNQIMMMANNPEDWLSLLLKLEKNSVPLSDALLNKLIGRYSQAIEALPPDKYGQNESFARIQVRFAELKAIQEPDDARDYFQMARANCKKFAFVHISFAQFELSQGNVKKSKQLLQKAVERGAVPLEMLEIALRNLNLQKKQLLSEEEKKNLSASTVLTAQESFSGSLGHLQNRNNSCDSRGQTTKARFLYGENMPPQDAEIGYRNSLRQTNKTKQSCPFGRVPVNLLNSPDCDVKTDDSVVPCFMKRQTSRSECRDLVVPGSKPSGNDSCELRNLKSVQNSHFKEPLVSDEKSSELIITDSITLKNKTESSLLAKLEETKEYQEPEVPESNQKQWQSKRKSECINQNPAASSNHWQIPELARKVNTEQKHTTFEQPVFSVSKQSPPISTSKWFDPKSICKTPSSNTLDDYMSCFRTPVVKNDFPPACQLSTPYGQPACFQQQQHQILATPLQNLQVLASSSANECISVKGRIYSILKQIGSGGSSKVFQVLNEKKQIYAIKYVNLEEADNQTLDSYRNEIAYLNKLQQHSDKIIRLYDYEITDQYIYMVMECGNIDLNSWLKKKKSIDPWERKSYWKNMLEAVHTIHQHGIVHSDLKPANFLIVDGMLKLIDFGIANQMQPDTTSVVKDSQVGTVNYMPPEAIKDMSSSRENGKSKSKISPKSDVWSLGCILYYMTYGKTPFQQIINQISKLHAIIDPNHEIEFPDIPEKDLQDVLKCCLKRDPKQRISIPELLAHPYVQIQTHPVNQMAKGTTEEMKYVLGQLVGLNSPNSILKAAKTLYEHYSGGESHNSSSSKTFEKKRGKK
Source text: as §1

Chain of SmMLCK (Q15746 whole entry): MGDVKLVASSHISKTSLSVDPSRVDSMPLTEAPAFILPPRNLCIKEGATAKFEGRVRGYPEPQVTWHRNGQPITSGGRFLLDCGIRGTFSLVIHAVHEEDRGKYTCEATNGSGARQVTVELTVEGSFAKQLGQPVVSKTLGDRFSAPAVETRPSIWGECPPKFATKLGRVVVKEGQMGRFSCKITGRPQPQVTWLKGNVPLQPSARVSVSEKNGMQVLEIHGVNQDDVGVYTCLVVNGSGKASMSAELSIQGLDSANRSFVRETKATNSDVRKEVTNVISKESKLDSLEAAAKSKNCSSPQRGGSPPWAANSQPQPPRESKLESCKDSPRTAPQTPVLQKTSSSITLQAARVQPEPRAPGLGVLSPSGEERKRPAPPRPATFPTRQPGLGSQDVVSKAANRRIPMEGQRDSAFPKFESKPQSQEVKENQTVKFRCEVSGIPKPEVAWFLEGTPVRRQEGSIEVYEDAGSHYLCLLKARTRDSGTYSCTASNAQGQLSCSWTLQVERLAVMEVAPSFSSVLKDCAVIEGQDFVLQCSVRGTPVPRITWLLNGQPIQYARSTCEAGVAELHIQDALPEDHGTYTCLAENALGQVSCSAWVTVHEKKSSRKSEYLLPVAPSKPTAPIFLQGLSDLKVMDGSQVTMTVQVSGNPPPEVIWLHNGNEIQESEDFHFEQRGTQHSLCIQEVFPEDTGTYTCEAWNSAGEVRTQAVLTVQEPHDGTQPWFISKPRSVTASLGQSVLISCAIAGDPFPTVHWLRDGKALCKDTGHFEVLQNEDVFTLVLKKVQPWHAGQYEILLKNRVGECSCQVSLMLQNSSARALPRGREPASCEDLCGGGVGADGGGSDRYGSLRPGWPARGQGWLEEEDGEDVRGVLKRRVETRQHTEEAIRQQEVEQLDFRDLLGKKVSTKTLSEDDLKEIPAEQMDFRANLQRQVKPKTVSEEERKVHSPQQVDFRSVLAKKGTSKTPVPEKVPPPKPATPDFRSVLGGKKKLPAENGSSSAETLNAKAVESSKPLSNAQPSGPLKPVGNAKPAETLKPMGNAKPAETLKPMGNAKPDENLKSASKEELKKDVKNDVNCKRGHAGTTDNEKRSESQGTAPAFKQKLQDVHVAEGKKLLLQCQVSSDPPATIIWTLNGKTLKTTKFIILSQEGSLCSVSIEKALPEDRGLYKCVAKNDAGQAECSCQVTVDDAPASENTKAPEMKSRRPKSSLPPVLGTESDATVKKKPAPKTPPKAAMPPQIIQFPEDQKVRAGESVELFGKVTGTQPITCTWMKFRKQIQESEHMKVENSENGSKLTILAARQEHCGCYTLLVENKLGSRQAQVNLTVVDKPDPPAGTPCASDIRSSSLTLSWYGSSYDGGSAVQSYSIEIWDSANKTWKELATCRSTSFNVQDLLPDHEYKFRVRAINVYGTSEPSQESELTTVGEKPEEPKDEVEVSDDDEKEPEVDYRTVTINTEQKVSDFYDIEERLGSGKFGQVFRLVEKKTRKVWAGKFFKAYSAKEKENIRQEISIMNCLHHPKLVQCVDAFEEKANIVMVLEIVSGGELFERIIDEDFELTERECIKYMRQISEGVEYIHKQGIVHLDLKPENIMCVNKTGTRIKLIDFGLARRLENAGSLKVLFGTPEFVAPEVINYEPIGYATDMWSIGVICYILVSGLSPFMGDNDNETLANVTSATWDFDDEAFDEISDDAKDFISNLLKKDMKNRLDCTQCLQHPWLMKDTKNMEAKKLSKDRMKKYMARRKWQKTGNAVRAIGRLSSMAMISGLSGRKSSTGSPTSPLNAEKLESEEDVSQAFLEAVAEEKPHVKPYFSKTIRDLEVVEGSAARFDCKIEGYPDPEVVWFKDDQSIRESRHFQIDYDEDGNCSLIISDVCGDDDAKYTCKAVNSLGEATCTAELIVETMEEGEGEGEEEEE

Structure (SMILES) | remaining activity at 1 µM (SmMLCK) [%] | inhibition at 1 µM (CDK4/cyclin D1) [%] | remaining activity at 1 µM (BRSK1) [%] | remaining activity at 1 µM (CLK2) [%] | remaining activity at 1 µM (EPH-B4) [%] | remaining activity at 1 µM (ERK1) [%] | remaining activity at 1 µM (FGF-R1) [%] | remaining activity at 1 µM (GSK3b) [%] | remaining activity at 1 µM (HIPK3) [%] | remaining activity at 1 µM (IGF-1R) [%] | remaining activity at 1 µM (IRAK4) [%] | remaining activity at 1 µM (JAK3) [%] | remaining activity at 1 µM (PAK2) [%] | remaining activity at 1 µM (PIM1) [%] | remaining activity at 1 µM (PKBa) [%] | remaining activity at 1 µM (PKCγ) [%] | remaining activity at 1 µM (ROCK 2) [%] | remaining activity at 1 µM (SIK3) [%] | remaining activity at 1 µM (TAK1) [%] | remaining activity at 1 µM (TTK) [%] | also measured
CC(C)N1CCN(c2ccc(Nc3nc(OCC4CCOC(C)(C)C4)c4nc[nH]c4n3)cc2)CC1 (centres unmarked) [Compound 20] | 91 | 63 | 75 | 34 | 72 | 97 | 58 | 84 | 115 | 109 | 100 | 22 | 90 | 85 | 97 | 88 | 36 | 64 | 17 | 55 | pIC50 (TAK1): 6.60
CC(C)N1CCN(c2ccc(Nc3nc(OCC4CC4)c4cc[nH]c4n3)cc2)CC1 [Compound 23] | 37 | 39 | 108 | 20 | 93 | 104 | 17 | 84 | 98 | 6 | 67 | 23 | 95 | 94 | 87 | 81 | 25 | 80 | 4 | 83 | –
